pKi: −log10 of the molar value.
Key:
[1] = tested on: carbachol-induced airway contraction; assay: Test of rat airway contraction (carbachol-induced rise in airway pressure); assay type: in vivo; conditions: for ID50, carbachol-induced airway contraction inhibitory action: evaluation after 3 hours from oral administration, carbachol 30 μg/kg i.v.; for Inhibition rate, carbachol-induced airway contraction inhibitory action: evaluation after 24 hours from administration into the trachea of 0.5 μg/kg of a drug
Description: a. Test of Rat Airway Contraction
Male SD rats (250 to 400 g) were anesthetized by the intraperitoneal administration of pentobarbital sodium (Nembutal; 50 mg/kg), and the major airway was dissected. An airway cannula was intubated into the trachea, and the pressure in the airway was measured by a pressure transducer. After administration of pancuronium bromide (0.2 mg/kg, i.v.), a stable pressure in the airway was obtained before the experiment was initiated. For the experiment, by administration into the external maxillary vein/administration into the duodenum/oral administration/administration into the airway, physiological saline (in the case of oral administration/administration into the duodenum, distilled water) or a compound to be tested was administered, and after 5 to 30 minutes in the case of intravenous administration, after 0.25 to 6 hours in the case of oral administration into the duodenum, and after 0.25 to 72 hours in the case of administration into the airway, carbachol was intravenously administered at a dose (volume) of 30 μg/kg (1 mL/kg), and the pressures in the airway were then measured, respectively, for a period of 5 minutes. […]

muscarinic M3 receptor = muscarinic M3 receptor (Rattus norvegicus, UniProt P08483); conditions: receptor binding antagonistic experiment, [3H]-N-methylscopolamine, rat membrane specimen, 25° C. 2 hours
Chain of muscarinic M3 receptor (P08483 whole entry): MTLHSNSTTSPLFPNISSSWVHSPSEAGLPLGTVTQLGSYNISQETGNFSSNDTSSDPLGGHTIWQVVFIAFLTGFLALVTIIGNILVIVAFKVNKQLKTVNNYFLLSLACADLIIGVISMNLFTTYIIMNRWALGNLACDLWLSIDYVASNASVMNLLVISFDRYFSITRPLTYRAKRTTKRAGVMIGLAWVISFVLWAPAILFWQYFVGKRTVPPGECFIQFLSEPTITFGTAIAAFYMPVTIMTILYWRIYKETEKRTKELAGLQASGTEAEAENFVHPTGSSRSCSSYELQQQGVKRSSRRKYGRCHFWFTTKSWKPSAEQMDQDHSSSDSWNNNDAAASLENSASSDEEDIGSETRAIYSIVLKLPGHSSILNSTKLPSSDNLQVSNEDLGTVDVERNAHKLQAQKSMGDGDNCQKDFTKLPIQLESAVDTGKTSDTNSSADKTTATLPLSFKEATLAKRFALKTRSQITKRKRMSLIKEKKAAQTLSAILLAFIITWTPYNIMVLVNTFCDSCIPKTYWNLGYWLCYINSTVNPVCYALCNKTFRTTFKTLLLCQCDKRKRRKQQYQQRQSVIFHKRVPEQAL
Description: Test of Muscarinic Receptor Affinity (In Vitro)
The submandibular gland/heart and the cerebral cortex were harvested from male SD rats (Japan SLC, Inc.) and a 10-fold volume of a 25 mM Tris buffer (pH=7.4, hereinafter referred to as a Tris buffer) containing 3.75 mM magnesium chloride was added thereto, followed by homogenization under ice-cooling. Centrifugation was performed at 1,000 g, 4° C. for 10 minutes, and then ultracentrifugation was performed at 100,000 g, 4° C. for 30 minutes. This precipitate was suspended in a Tris buffer and stored at −80° C. After this, it was melted in use, and tested.
A membrane specimen of any one of the submandibular gland, the heart, and the cerebral cortex, [^3H]-N-methylscopolamine (N-methylscopolamine) and a compound to be tested were incubated in 0.3 mL of a Tris buffer at 25° C. for 2 hours, and suction-filtered through a glass filter (Whatman GF/B), and the filter was washed 8 times with 0.3 mL of a Tris buffer. The radioactivity of [^3H]-N-methylscopolamine adsorbed on the filter was measured with Top Count. Further, the receptor-specific binding was determined by adding 1 μM N-methylscopolamine. […]

| Structure (SMILES) | ID50, carbachol-induced airway contraction inhibitory action [1] | Inhibition rate, carbachol-induced airway contraction inhibitory action [1] | other results |
| --- | --- | --- | --- |
| Cl.O=C(Nc1ncsc1-c1ccccc1)OCC12CCN(CC1)CC2 [Example 6, 1-azabicyclo[2.2.2]oct-4-ylmethyl(5-phenyl-1,3-thiazol-4-yl)carbamate hydrochloride] | 0.1 mg/kg | – | – |
| O=C(Nc1ncsc1-c1ccccc1)OC12CCCN(CC1)CC2 [Example 14, 1-azabicyclo[3.2.2]non-5-yl(5-phenyl-1,3-thiazol-4-yl)carbamate] | 0.027 mg/kg | – | – |
| C[N+]12CCC(OC(=O)Nc3ncsc3-c3cccc(Cl)c3)(CC1)CC2 [Example 32] | – | 82% | – |
| O=C(Nc1ccsc1-c1ccccc1)OCC1C[N+]2(CCCc3ccccc3)CCC1CC2 (centres unmarked) [Example 43] | – | 64% | – |
| O=C(Nc1ncsc1-c1ccccc1)OC12CC[N+](CCOc3ccccc3)(CC1)CC2 [Example 46] | – | 90% | – |
| O=C(Nc1ncsc1-c1ccccc1)OC12CC[N+](CCc3ccccc3)(CC1)CC2 [Example 50] | – | 61% | – |
| C[N+]12CCC(OC(=O)Nc3ncsc3-c3cc(F)ccc3F)(CC1)CC2.[I-] [Example 57] | – | 64% | – |
| C[N+]12CCCC(OC(=O)Nc3ncsc3-c3ccccc3)(CC1)CC2.[I-] [Example 65] | – | 61% | – |
| O=C(Nc1ncsc1-c1cccc(Cl)c1)OC12CC[N+](CCOc3ccccc3)(CC1)CC2.[Br-] [Example 66] | – | 80% | – |
| O=C(Nc1ncsc1-c1ccccc1)OC12CCN(CC1)CC2 [Example 95] | – | – | pKi (muscarinic M3 receptor): 9.70 |
| Cl.O=C(Nc1ncsc1-c1ccccc1)OC1C2CC3CC1CN(C3)C2 (centres unmarked) [Example 110] | 0.41 mg/kg | – | – |
| Cl.O=C(Nc1ccsc1-c1ccccc1)OCC1CN2CCC1CC2 (centres unmarked) [Example 136] | 0.68 mg/kg | – | – |
| Cl.O=C(Nc1ncsc1-c1ccc(F)cc1)OC12CCN(CC1)CC2 [Example 156] | 0.091 mg/kg | – | – |
| Cl.O=C(Nc1ncsc1-c1ccccc1)OCC1CN2CCCC1C2 (centres unmarked) [Example 264] | 0.21 mg/kg | – | – |

From US8367696B2, “Aza-bridged-ring compound” (Astellas Pharma Inc., priority 2007, dated 2013)
